One compound from paper PMC5037267, “Crystal Structure of a Group I Energy Coupling Factor Vitamin Transporter S Component in Complex with Its Cognate Substrate” (Cell Chemical Biology, 2016) can be followed below.

Residue numbers refer to the chain shown, from its start.

Type in all cases: binding
Assay [1] deals with T1, YkoE (Bacillus subtilis, UniProt O34738).
T1 construct: isolated S component without YkoC/YkoD; N-terminal His6 tag cut by TEV; E. coli Lemo21; n-decyl-beta-D-maltopyranoside; four N-terminal residues not seen in crystal
T1 sequence (O34738 1-199 limits assumed): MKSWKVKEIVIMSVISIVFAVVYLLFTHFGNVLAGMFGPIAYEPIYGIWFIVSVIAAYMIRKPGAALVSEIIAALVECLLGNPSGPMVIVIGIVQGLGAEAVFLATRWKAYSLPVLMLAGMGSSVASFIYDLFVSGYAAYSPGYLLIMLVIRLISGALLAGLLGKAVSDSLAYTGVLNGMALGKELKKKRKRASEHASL
Put plainly: intrinsic Trp fluorescence quenching titration.

For assay [2], the target named is T2, YkoE (Bacillus subtilis, UniProt O34738, Y46A).
T2 construct: isolated S component without YkoC/YkoD; N-terminal His6 tag cut by TEV; E. coli Lemo21; n-decyl-beta-D-maltopyranoside; four N-terminal residues not seen in crystal
T2 sequence (O34738 1-199 Y46A limits assumed): T1 sequence (O34738 1-199 limits assumed) with Y46A
Put plainly: intrinsic Trp fluorescence quenching titration.

The target in assay [3] is T1, YkoE. Put plainly: CD thermal melting at […] nm. Particulars: YkoE from M9 medium plus excess thiamine; reference without added thiamine 68 °C; pH 7.1, 200 mM NaCl; 1 °C/min.
Assay [4] concerns the target T3, YkoE (Bacillus subtilis, UniProt O34738, E77A).
T3 construct: isolated S component without YkoC/YkoD; N-terminal His6 tag cut by TEV; E. coli Lemo21; n-decyl-beta-D-maltopyranoside; four N-terminal residues not seen in crystal
T3 sequence (O34738 1-199 E77A limits assumed): T1 sequence (O34738 1-199 limits assumed) with E77A
As to the kind of experiment: intrinsic Trp fluorescence quenching titration.

Assay [5] addresses T4, YkoE (Bacillus subtilis, UniProt O34738, Q95A).
T4 construct: isolated S component without YkoC/YkoD; N-terminal His6 tag cut by TEV; E. coli Lemo21; n-decyl-beta-D-maltopyranoside; four N-terminal residues not seen in crystal
T4 sequence (O34738 1-199 Q95A limits assumed): T1 sequence (O34738 1-199 limits assumed) with Q95A
As to the kind of experiment: intrinsic Trp fluorescence quenching titration. From the text:
intrinsic Trp fluorescence quenching titration on YkoE | with the Q95A mutation showing the largest effect on affinity

The target in assay [6] is T5, YkoE (Bacillus subtilis, UniProt O34738, D131A).
T5 construct: isolated S component without YkoC/YkoD; N-terminal His6 tag cut by TEV; E. coli Lemo21; n-decyl-beta-D-maltopyranoside; four N-terminal residues not seen in crystal
T5 sequence (O34738 1-199 D131A limits assumed): T1 sequence (O34738 1-199 limits assumed) with D131A
Put plainly: intrinsic Trp fluorescence quenching titration.

As for `Cc1ncc(C[n+]2csc(CCO)c2C)c(N)n1` [thiamine], the equilibrium dissociation constant (Kd) at YkoE [1] was approximately 4.5 nM; on YkoE [2] it was 10.3 ± 0.8 nM; on YkoE [4] it was 9.3 ± 0.6 nM; on YkoE [5], 26.9 ± 1.6 nM; on YkoE [6] it was 9.4 ± 0.9 nM. Moreover, the Tm at YkoE [3] turned out to be 75 °C.
